The text below walks through data of patent US12600696B2 (XENIOPRO GMBH, priority 2017, dated 2026).

What all share (type): cell-based
Experiment [1] concerns HL-60 cells (human acute myeloid leukemia cells). In words: alamarBlue proliferation assay with HL-60 cells. The following applies: 120 h, 5 days, relative to DMSO baseline level of 1.0, read-out: AVEw, weighted arithmetic mean of normalized fluorescence intensity values (Activity Range), HL-60 proliferation. A digest of the protocol:
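HL-60 cells (1000/well, RPMI 1640 + 10% FBS) exposed to compound in 0.1% DMSO for 5 days, then alamarBlue fluorescence read (ex 560/em 590 nm). Signals normalized to six DMSO wells per plate (baseline 1.0); outliers removed by Peirce/Chauvenet; weighted mean with combined SD; inhibitor criterion judged at 20 μM reference concentration.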
In general terms: Alamar Blue is a resazurin reagent that responds to reducing activity.

Experiment [2] relates to Notch signaling (hNotch1ΔE, human Notch1 receptor) in HeLa cells. In words: Notch reporter assay (luciferase luminescence readout in transfected HeLa cells). The following applies: Homo sapiens, 20 hours, relative to DMSO baseline level of 1.0, read-out: AVEw, weighted arithmetic mean of double-normalized Notch-reporter luciferase luminescence values (Activity Range). The gist of the method: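 HeLa cells were transiently transfected for 24 h with membrane-tethered constitutively active hNotch1ΔE, a CSL-promoter Firefly luciferase reporter and constitutive SV40-Renilla luciferase. Compounds were then applied at 10 μM (0.1% DMSO) for 20 h. Firefly/Renilla dual-luciferase ratios were normalized to DMSO control (baseline 1.0), outliers were excluded, and replicate values were averaged across ≥3 independent experiments.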

The subject of experiment [3] is CAL-27 cells (human tongue squamous cell carcinoma cells). Put plainly: alamarBlue proliferation assay with CAL-27 cells. The conditions noted are these: Homo sapiens, 120 h, 20 μM, 5 days, relative to DMSO baseline level of 1.0, read-out: AVEw, weighted arithmetic mean of normalized fluorescence intensity values (Activity Range), CAL-27 proliferation. As for the experimental part: The antiproliferative activities of compounds falling under formula I, formula II, formula III, formula IV and formula V were investigated on cells or cell lines originating from a disorder of the myeloid cell compartment, the neuroendocrine system, the cervix, and the mucosal epithelium, as well as from the skin epithelium. To this end, HL-60 cells, TT cells, HeLa cells, CAL-27 cells and human primary epidermal keratinocytes (HPEK) were seeded into 96-well plates suitable for fluorescence assays (CORNING #3598) at following initial cell numbers: 1000 cells per well for HL-60; 9000 cells per well for TT; 2000 cells per well for HeLa, 2000 cells per well for CAL-27, 2000 cells per well for HPEK. The cells were treated with compounds at indicated final concentrations (diluted from the 1000× stock-solutions in DMSO to a final DMSO concentration of 0.1% v/v) or with the empty carrier DMSO at 0.1% v/v as control for 5 days. At day 5 after starting the treatments the cells were subjected to the alamarBlue® Proliferation Assay (Bio-Rad Serotec GmbH, BUF012B) according to the protocol of the manufacturer. The readout was taken with a multi-well plate-reader in the fluorescence mode with applying a filter for excitation at 560 nm (band width 10 nm) and for emission at 590 nm (band width 10 nm). Resveratrol (RES) treatment was included as control for growth inhibition.
The assays were performed in duplicate or more replicates of independent single experiments each containing a six-fold replicate for every condition. For every individual plate, the measured fluorescence intensity values of the conditions with compound treatment were normalized against the corresponding equally weighted arithmetic mean of the fluorescence intensity values of the six DMSO treated control wells in order to obtain the relative values to a baseline level of 1.0. The statistical calculations were performed in analogy to the luciferase assay as described above. To this end, two independent outlier analyses were performed according to the methods by Peirce and Chauvenet (Ross, Journal of Engineering Technology 2003, 1-12). Outliers confirmed by at least one of the methods were excluded from the calculations but not more than one value out of six per compound within a single experiment. The weighted arithmetic mean AVEw for each compound was calculated from the normalized values over all independent replicates of the single experiments comprising the six replicates each. The corresponding standard deviation for the weighted arithmetic mean was calculated according to the method described by Bronstein et al. (Bronstein, Semendjajew, Musiol, Mühlig, Taschenbuch der Mathematik, 5th edition 2001 (German), publisher: Verlag Harri Deutsch, Frankfurt am Main and Thun) and was combined with the Gauß′ error propagation associated with the performed calculation for the normalization. The resulting standard deviation is herein referred to as “combined standard deviation”.
CAL-27 cells were cultivated according to the protocol of the provider (but at 5% instead of 10% CO2) in DMEM medium (Fisherscientific, #11584456) containing 10% fetal bovine serum (Fisherscientific, #15517589).
A compound is considered as a growth inhibitor of CAL-27 cells, if—at a reference concentration of 20 μM—the weighted arithmetic mean of the normalized fluorescence intensity values after addition of the corresponding combined standard deviation amounts to 0.9 or lower, in particular to 0.8 or lower, 0.7 or lower, 0.6 or lower, 0.4 or lower, and 0.2 or lower, relative to the overall basis level of 1.0. The overall basis level was calculated as the weighted arithmetic mean of all normalized values from the DMSO control measurements in analogy to the calculations performed for the test-compounds. The corresponding combined standard deviation for the DMSO values amounts to less than 1·10^−2.

Turning to `CCCCCc1ccc(Oc2ccc(C(=O)NO)cc2)cc1` [Compound 168, N-hydroxy-4-(4-pentylphenoxy)benzamide], the activity at 20 µM in experiment [1] and in experiment [3] was 0 to 20% throughout. Moreover, the fold induction at 10 µM in experiment [2] fell in the range of 1.3 to 1.4.

For the molecule `CC(C)c1ccc(Oc2ccc(C(=O)NO)cc2)cc1` [Compound 170, N-hydroxy-4-(4-isopropylphenoxy)benzamide], the figures for the activity at 20 µM in experiment [1] and in experiment [3] were 0 to 20% and 20 to 40%, respectively. For the same molecule, the fold induction at 10 µM in experiment [2] is 1.1 to 1.2.

Regarding `O=C(NO)c1ccc(Oc2ccc(C3C[C@@H]4CC[C@H]3C4)cc2)cc1` (stereo partly drawn) [Compound 184, 4-(4-((1S,4R)-bicyclo[2.2.1]heptan-2-yl)phenoxy)-N-hydroxybenzamide], the activity at 20 µM in experiment [1] and in experiment [3] was 0 to 20% throughout. Moreover, the fold induction at 10 µM in experiment [2] lay in the range of 1.3 to 1.4.

As for `Cc1ccc(Oc2ccc(C(=O)NO)cn2)cc1` [Compound 266, N-hydroxy-6-(p-tolyloxy)nicotinamide], the activity at 20 µM in experiment [1] fell in the range of 0 to 20%; in experiment [3], 40 to 60%. Moreover, in experiment [2], the fold induction at 10 µM was in the range of 1.4 to 1.7.

Regarding `CCc1ccc(Oc2ccc(C(=O)NO)cn2)cc1` [Compound 267, 6-(4-ethylphenoxy)-N-hydroxynicotinamide], the activity at 20 µM in experiment [1] was in the range of 0 to 20%; in experiment [3], 20 to 40%. Moreover, in experiment [2], the fold induction at 10 µM fell in the range of 1.1 to 1.2.

As for `CCCc1ccc(Oc2ccc(C(=O)NO)cn2)cc1` [Compound 268, N-hydroxy-6-(4-propylphenoxy)nicotinamide], the activity at 20 µM in experiment [1] and in experiment [3] was 0 to 20% throughout. Further, in experiment [2], the fold induction at 10 µM fell in the range of 1.3 to 1.4.

`CCCCc1ccc(Oc2ccc(C(=O)NO)cn2)cc1` [Compound 269, 6-(4-butylphenoxy)-N-hydroxynicotinamide]: the activity at 20 µM in experiment [1] and in experiment [3] was 0 to 20% in each case. In experiment [2], the fold induction at 10 µM lay within 1.4 to 1.7.

As to `CCCCCc1ccc(Oc2ccc(C(=O)NO)cn2)cc1` [Compound 270, N-hydroxy-6-(4-pentylphenoxy)nicotinamide], the activity at 20 µM in experiment [1] and in experiment [3] was 0 to 20% each time.

With `O=C(NO)c1ccc(Oc2ccc(C(F)(F)F)cc2)nc1` [Compound 275, N-Hydroxy-6-(4-(trifluoromethyl)phenoxy)nicotinamide], the activity at 20 µM in experiment [1] and in experiment [3] was 0 to 20% each time. In addition, the fold induction at 10 µM in experiment [2] was 1.2 to 1.3.

For `O=C(NO)c1ccc(Oc2ccc(C3C[C@@H]4CC[C@H]3C4)cc2)nc1` (stereo partly drawn) [Compound 286, 6-(4-((1S,4R)-bicyclo[2.2.1]heptan-2-yl)phenoxy)-N-hydroxynicotinamide], the activity at 20 µM in experiment [1] and in experiment [3] was 0 to 20% throughout. For the same molecule, the fold induction at 10 µM in experiment [2] was in the range of 1.3 to 1.4.

With `CNC(=O)c1ccc(Oc2ccc(C34CC5CC(CC(C5)C3)C4)cc2)nc1` [Compound 313, 6-(4-((3r,5r,7r)-adamantan-1-yl)phenoxy)-N-methylnicotinamide], the activity at 20 µM in experiment [1] is 40 to 60%; in experiment [3] it was 70 to 80%.

With `CCC(C)(C)c1ccc(Oc2ccc(C(=O)NO)cc2F)cc1` [Compound 529, 3-fluoro-N-hydroxy-4-(4-(tert-pentyl)phenoxy)benzamide], the activity at 20 µM in experiment [1] and in experiment [3] was 0 to 20% in each case.

Turning to `CN(C)C(=O)c1ccc(Oc2ccc(C34CC5CC(CC(C5)C3)C4)cc2)c(F)c1` [Compound 596, 4-(4-((3r,5r,7r)-adamantan-1-yl)phenoxy)-3-fluoro-N,N-dimethylbenzamide], the activity at 20 µM in experiment [1] fell in the range of 20 to 40%; in experiment [3] it was 80 to 90%.

Regarding `O=C(NO)c1cnc(Oc2ccc(C34CC5CC(CC(C5)C3)C4)cc2)c(F)c1` [Compound 648, 6-(4-((3r,5r,7r)-adamantan-1-yl)phenoxy)-5-fluoro-N-hydroxynictinamide], the activity at 20 µM in experiment [1] and in experiment [3] was 0 to 20% in each case.

As to `O=C(NO)c1ccc(Oc2ccc(C3(C(F)(F)F)CC3)cc2)cc1` [Compound 766, N-hydroxy-4-(4-(1-(trifluoromethyl)cyclopropyl)phenoxy)benzamide], the activity at 20 µM in experiment [1] and in experiment [3] was 0 to 20% each time.

Turning to `O=C(NO)c1ccc(Oc2ccc(C3(C(F)(F)C(F)(F)F)CC3)cc2)cc1` [Compound 767, N-hydroxy-4-(4-(1-(perfluoroethyl)cyclopropyl)phenoxy)benzamide], the activity at 20 µM in experiment [1] and in experiment [3] was 0 to 20% throughout.

In the case of `O=C(NO)c1ccc(Oc2ccc(C3(C(F)(F)F)CC3)cc2Cl)cc1` [Compound 774, 4-(2-chloro-4-(1-(trifluoromethyl)cyclopropyl)phenoxy)-N-hydroxybenzamide], the activity at 20 µM in experiment [1] lay within 0 to 20%; in experiment [3] it was 70 to 80%.

`O=C(NO)c1ccc(Oc2ccc(C3(C(F)(F)F)CC3)cc2)nc1` [Compound 802, N-hydroxy-6-(4-(1-(trifluoromethyl)cyclopropyl)phenoxy)nicotinamide]: the activity at 20 µM in experiment [1] and in experiment [3] was 0 to 20% throughout.

Turning to `O=C(NO)c1ccc(Oc2ccc(C3(C(F)(F)C(F)(F)F)CC3)cc2)nc1` [Compound 803, N-hydroxy-6-(4-(1-(perfluoroethyl)cyclopropyl)phenoxy)nicotinamide], the activity at 20 µM in experiment [1] and in experiment [3] was 0 to 20% throughout.

`O=C(NO)c1cnc(Oc2ccc(C3(C(F)(F)F)CC3)cc2)c(F)c1` [Compound 804, 5-fluoro-N-hydroxy-6-(4-(1-(trifluoromethyl)cyclopropyl)phenoxy)nicotinamide]: the activity at 20 µM in experiment [1] and in experiment [3] was 0 to 20% in each case.

Take `CN(C)C(=O)c1ccc(Oc2ccc(C3(C(F)(F)F)CC3)cc2)nc1` [Compound 820, N,N-Dimethyl-6-(4-(1-(trifluoromethyl)cyclopropyl)phenoxy)-nicotinamide]: the figures for the activity at 20 µM in experiment [1] and in experiment [3] were 40 to 60% and 80 to 90%, respectively. The fold induction at 10 µM in experiment [2] fell in the range of 1.4 to 1.7.

Regarding `CN(C)C(=O)c1cnc(Oc2ccc(C3(C(F)(F)F)CC3)cc2)c(F)c1` [Compound 822, 5-fluoro-N,N-dimethyl-6-(4-(1-(trifluoromethyl)cyclopropyl)phenoxy)nicotinamide], the activity at 20 µM in experiment [1] is 70 to 80%; in experiment [3], 80 to 90%.
